These results are taken from patent EP0367124A1, “Penicillanic acid derivatives” (F. HOFFMANN-LA ROCHE AG, priority 1988, dated 1990).

Assay in all cases: In vitro MIC, Agar Well Diffusion Method
Holding throughout (assay type): cell-based

The test system of assay [1] is Bacillus megaterium 164 ATCC 8011. The note with it: for MIC: Priestia megaterium, ATCC8011, Culture Bacillus megaterium 164 ATCC 8011. From the text: (§1) The in vitro activity of compounds of the present invention as measured by the Minimum Inhibitory Concentration (MIC) in micrograms per milliliter (mcg/ml), utilizing the Agar Well Diffusion Method, against a variety of Gram-negative microorganisms is illustrated in the following Table, in which the compounds evaluated were as follows: • Compound A: [2S-[2α,3α,5α,6β(R*)]]-6-[[[[(4-Ethyl-2,3-dioxo-1-piperazinyl)carbonyl]amino]phenylacetyl]amino]-3-methyl-3-[[(1-methyl-1H-tetrazole-5-yl)thio]methyl]-7-oxo-4-thia-1-azabicyclo[3.2.0]-heptane-2-carboxylic acid monosodium salt sesquihydrate • Compound B: [2S-(2α,3α,5α,6β)]-3-Methyl-3-[[(1-methyl-1H-tetrazol-5-yl)-thio]methyl-7-oxo-6-[(phenylacetyl)amino]-4-thia-1-azabicyclo[3.2.0] heptane-2-carboxylic acid monosodium salt • Compound C: [2S-[2α,3α,5α,6β(Z)]]-6-[[(2-Amino-4-thiazolyl)-(methoxyimino)-acetyl]amino]-3-methyl -3-[[(1-methyl-1H-tetrazol-5-yl)thio]methyl]-7-oxo-4-thia-1-azabicyclo[3.2.0]heptane-2-carboxylic acid monosodium salt • Compound D: [2S-(2α,3α,5α,6β)]-3-(Azidomethyl)-3-methyl-7-oxo-6-[(phenylacetyl)amino]-4-thia-1-azabicyclo-[3.2.0]heptane-2-carboxylic acid monosodium salt • Compound E: [2S-(2α,3α,5α,6β)]-1-[[2-carboxy-3-methyl-7-oxo-6-[(phenylacetyl)amino]-4-thia-1-azabicyclo-[3.2.0]hept-3-yl]methylpyridinium hydroxide inner salt • Compound F: [2S-(2α,3α,5α,6β)]-3-[[(2,5-Dihydro-6-hydroxy-2-methyl-5-oxo-1,2,4-triazine-3-yl)thio] -methyl]-3-methyl-7-oxo-6-[(phenylacetyl)amino]-4-thia-1-azabicyclo[3.2.0]heptane-2-carboxylic acid disodium salt • Compound G: [2S-(2α,3α,5α,6β)]-3-[(Acetylthio)-methyl]-3-methyl-7-oxo-6-[(phenylacetyl)amino]-4-thia-1-azabicyclo[3.2.0]heptane-2-carboxylic acid monosodium salt • Compound H: [2S-(2α,3α,5α,6β)]-3-[[[3,4-bis(Acetyloxy)benzoyl]oxy]methyl]-3-methyl-7-oxo-6-[(phenylacetyl)amino]-4-thia-1-azabicyclo[3.2.0]heptane-2-carboxylic acid monosodium salt

The test system of assay [2] is Bacillus subtilus 558 NRRL 558. The note with it: for MIC: NRRL558, Culture Bacillus subtilus 558 NRRL 558.
Description: as §1

The next assay has as its system Escherichia coli 1269B. The note with it: Culture Escherichia coli 1269B.
Description: as §1

In another assay the test system is Escherichia coli 2721B. As to conditions: Culture Escherichia coli 2721B.
Description: as §1

The test system of a further assay is Escherichia coli 2722B. As to conditions: Culture Escherichia coli 2722B.
Description: as §1

The next assay relates to Escherichia coli 3081B. The note with it: Culture Escherichia coli 3081B.
Description: as §1

A further assay has as its system Escherichia coli 3082B. The note with it: Culture Escherichia coli 3082B.
Description: as §1

Assay [3] has as its system Micrococcus luteus PCI ATCC 9341. The note with it: for MIC: ATCC9341, Culture Micrococcus luteus PCI ATCC 9341.
Description: as §1

The test system of the next assay is Proteus vulgaris 100. The note with it: Culture Proteus vulgaris 100.
Description: as §1

The subject of assay [4] is Proteus vulgaris 101N ATCC 6380. The note with it: for MIC: ATCC6380, Culture Proteus vulgaris 101N ATCC 6380.
Description: as §1

Assay [5] deals with Pseudomonas aeruginosa 56 ATCC 8079. The note with it: for MIC: ATCC8079, Culture Pseudomonas aeruginosa 56 ATCC 8079.
Description: as §1

The subject of assay [6] is Pseudomonas aeruginosa 56M. The note with it: Culture Pseudomonas aeruginosa 56M.
Description: as §1

Assay [7] deals with Pseudomonas maltophilia 28978 ATCC 17445. As to conditions: Stenotrophomonas maltophilia, ATCC17445, Culture Pseudomonas maltophilia 28978 ATCC 17445.
Description: as §1

Assay [8] relates to Staphylococcus aureus 3647B. The note with it: Culture Staphylococcus aureus 3647B.
Description: as §1

For assay [9], the system named is Staphylococcus aureus 82 ATCC 6538P. The note with it: Culture Staphylococcus aureus 82 ATCC 6538P; for MIC: ATCC6538P.
Description: as §1

Assay [10] concerns Streptococcus faecium ATCC 8043. As to conditions: for MIC: Enterococcus faecium, ATCC8043, Culture Streptococcus faecium ATCC 8043.
Description: as §1

The subject of assay [11] is Staphylococcus aureus 1059B. As to conditions: Culture Staphylococcus aureus 1059B.
Assay [12] relates to Staphylococcus aureus 3037B. As to conditions: Culture Staphylococcus aureus 3037B.

Structures can show the parent of a compound that is named as a salt. Bounds are passed on as bounds.

The term MIC denotes the lowest concentration found to suppress growth. Read a low MIC as greater potency.

Turning to `CCN1CCN(C(=O)NC(C(=O)NC2C(=O)N3C2SC(C)(CSc2nnnn2C)C3C(=O)O)c2ccccc2)C(=O)C1=O` (stereo not drawn) [Compound A, [2S-[2α,3α,5α,6β(R*)]]-6-[[[[(4-Ethyl-2,3-dioxo-1-piperazinyl)carbonyl]amino]phenylacetyl]amino]-3-methyl-3-[[(1-methyl-1H-tetrazole-5-yl)thio]methyl]-7-oxo-4-thia-1-azabicyclo[3.2.0]-heptane-2-carboxylic acid monosodium salt sesquihydrate], the MIC in assay [1] was 0.12 µg/mL; in assay [2] it was 0.98 µg/mL; in the assay on Escherichia coli 1269B, 62.5 µg/mL; in the assay on Escherichia coli 2721B, 3.9 µg/mL; with Escherichia coli 2722B it was 0.12 µg/mL; in the assay on Escherichia coli 3081B, 15.6 µg/mL. Moreover, the minimal inhibitory concentration (MIC) with Escherichia coli 3082B came to 0.24 µg/mL; in assay [3], 0.49 µg/mL; in the assay on Proteus vulgaris 100, 7.8 µg/mL; in assay [4] it was 0.98 µg/mL; in assay [5], 15.6 µg/mL; in assay [6], 0.49 µg/mL. Further, the MIC in [7] came out at 250 µg/mL; in assay [8], 500 µg/mL; in assay [9], 0.98 µg/mL; in [10], 31.3 µg/mL; in [11] it was 7.8 µg/mL; in assay [12] it was 500 µg/mL.
`Cn1nnnc1SCC1(C)SC2C(NC(=O)Cc3ccccc3)C(=O)N2C1C(=O)O` (stereo not drawn) [Compound B, [2S-(2α,3α,5α,6β)]-3-Methyl-3-[[(1-methyl-1H-tetrazol-5-yl)-thio]methyl-7-oxo-6-[(phenylacetyl)amino]-4-thia-1-azabicyclo[3.2.0]heptane-2-carboxylic acid monosodium salt]: the MIC in assay [1] is 0.015 µg/mL; in [2], 0.03 µg/mL; against Escherichia coli 1269B it was greater than 125 µg/mL; against Escherichia coli 2721B, 62.5 µg/mL; against Escherichia coli 2722B, 31.3 µg/mL; in the assay on Escherichia coli 3081B it was greater than 125 µg/mL. Also, the MIC with Escherichia coli 3082B is 31.3 µg/mL; in assay [3] it was 0.03 µg/mL; in the assay with Proteus vulgaris 100, greater than 125 µg/mL; in assay [4], 15.6 µg/mL; in assay [5], 62.5 µg/mL; in [6], 0.98 µg/mL. For the same compound, the minimal inhibitory concentration (MIC) is greater than 125 µg/mL in [7]; 125 µg/mL in assay [8]; 0.03 µg/mL in [9]; 7.8 µg/mL in [10]; 3.9 µg/mL in [11]; 125 µg/mL in [12].
Regarding `CC1(C[n+]2ccccc2)SC2C(NC(=O)Cc3ccccc3)C(=O)N2C1C(=O)[O-]` (stereo not drawn) [Compound E, [2S-(2α,3α,5α,6β)]-1-[[2-carboxy-3-methyl-7-oxo-6-[(phenylacetyl)amino]-4-thia-1-azabicyclo-[3.2.0]hept-3-yl]methylpyridinium hydroxideinner salt], the minimum inhibitory concentration (MIC) in [1] came to 0.49 µg/mL; in assay [2] it was 0.24 µg/mL; against Escherichia coli 1269B, 500 µg/mL; in the assay on Escherichia coli 2721B, 31.3 µg/mL; with Escherichia coli 2722B, 31.3 µg/mL; against Escherichia coli 3081B, 125 µg/mL. The MIC against Escherichia coli 3082B was 31.3 µg/mL; in [3], 1.95 µg/mL; against Proteus vulgaris 100, greater than 500 µg/mL; in assay [4], 125 µg/mL; in assay [5], 125 µg/mL; in [6] it was 3.9 µg/mL. Further, the MIC is 500 µg/mL in assay [8]; 0.49 µg/mL in [9]; 125 µg/mL in assay [10]; 15.6 µg/mL in [11]; 62.5 µg/mL in assay [12].
On to `Cn1nc([O-])c(=O)nc1SC[C@@]1(C)S[C@@H]2[C@H](NC(=O)Cc3ccccc3)C(=O)N2[C@H]1C(=O)[O-].[Na+].[Na+]` [Compound F, [2S-(2α,3α,5α,6β)]-3-[[(2,5-Dihydro-6-hydroxy-2-methyl-5-oxo-1,2,4-triazine-3-yl)thio] -methyl]-3-methyl-7-oxo-6-[(phenylacetyl)amino]-4-thia-1-azabicyclo[3.2.0]heptane-2-carboxylic acid disodium salt], for which the “In Vitro MIC” value was 0.12 µg/mL in assay [1] (Culture Bacillus megaterium 164 ATCC 8011); 0.12 µg/mL in assay [2] (Culture Bacillus subtilus 558 NRRL 558); 500 µg/mL in the assay on Escherichia coli 1269B; 31.3 µg/mL with Escherichia coli 2721B; 3.9 µg/mL in the assay on Escherichia coli 2722B; 125 µg/mL with Escherichia coli 3081B. Moreover, the “In Vitro MIC” value with Escherichia coli 3082B was found to be 0.98 µg/mL; in assay [3] (Culture Micrococcus luteus PCI ATCC 9341), 0.24 µg/mL; with Proteus vulgaris 100, 250 µg/mL; in assay [4] (Culture Proteus vulgaris 101N ATCC 6380), 7.8 µg/mL; in assay [5] (Culture Pseudomonas aeruginosa 56 ATCC 8079), 31.5 µg/mL; in assay [6] it was 0.49 µg/mL. Further, the “In Vitro MIC” value in [8] is 500 µg/mL; in assay [9], 0.24 µg/mL; in assay [10] (Culture Streptococcus faecium ATCC 8043) it was 62.5 µg/mL; in assay [11], 0.24 µg/mL; in assay [12] it was 500 µg/mL.
Regarding `CC(=O)SCC1(C)SC2C(NC(=O)Cc3ccccc3)C(=O)N2C1C(=O)O` (stereo not drawn) [Compound G, [2S-(2α,3α,5α,6β)]-3-[(Acetylthio)methyl]-3-methyl-7-oxo-6-[(phenylacetyl)amino]-4-thia-1-azabicyclo[3.2.0]heptane-2-carboxylic acid monosodium salt], the minimum inhibitory concentration (MIC) was determined as 0.03 µg/mL in assay [2]; 62.5 µg/mL with Escherichia coli 2721B; 7.8 µg/mL with Escherichia coli 2722B; 500 µg/mL with Escherichia coli 3081B; 1.95 µg/mL in the assay on Escherichia coli 3082B; 0.06 µg/mL in assay [3]. For the same compound, the minimum inhibitory concentration (MIC) is greater than 500 µg/mL against Proteus vulgaris 100; 31.3 µg/mL in assay [4]; 125 µg/mL in assay [5]; 0.98 µg/mL in [6]; greater than 500 µg/mL in [7]; 250 µg/mL in [8]. The MIC stood at 0.03 µg/mL in assay [9], 0.98 µg/mL in assay [10], 0.98 µg/mL in [11] and 250 µg/mL in [12].
With `CC(=O)Oc1ccc(C(=O)OCC2(C)SC3C(NC(=O)Cc4ccccc4)C(=O)N3C2C(=O)O)cc1OC(C)=O` (stereo not drawn) [Compound H, [2S-(2α,3α,5α,6β)]-3-[[[3,4-bis(Acetyloxy)benzoyl]oxy]methyl]-3-methyl-7-oxo-6-[(phenylacetyl)amino]-4-thia-1-azabicyclo[3.2.0]heptane-2-carboxylic acid monosodium salt], the MIC in [2] is 0.12 µg/mL; against Escherichia coli 2721B, 500 µg/mL; in the assay with Escherichia coli 2722B it was 62.5 µg/mL; with Escherichia coli 3081B, greater than 500 µg/mL; in the assay with Escherichia coli 3082B, 15.6 µg/mL; in assay [3], 0.12 µg/mL. Also, the minimal inhibitory concentration (MIC) against Proteus vulgaris 100 is greater than 500 µg/mL; in assay [4] it was 62.5 µg/mL; in assay [5], 31.5 µg/mL; in assay [6], 1.95 µg/mL; in assay [7], 31.5 µg/mL; in assay [8] it was 500 µg/mL. Moreover, the MIC in assay [9] was found to be 0.12 µg/mL; in assay [10], 7.8 µg/mL; in assay [11], 7.8 µg/mL; in assay [12], 125 µg/mL.
